Structures can show the parent of a compound that is named as a salt. Where two headings read alike, the source gives them in different places.
Experiments:
human NTCP [1] = molecular target: T1, human NTCP (Homo sapiens, UniProt Q14973); test: Screening fluorescent competitive Myrcludex B-FITC binding assay (96-well, 10 µM drug)
T1 sequence (Q14973 1-349): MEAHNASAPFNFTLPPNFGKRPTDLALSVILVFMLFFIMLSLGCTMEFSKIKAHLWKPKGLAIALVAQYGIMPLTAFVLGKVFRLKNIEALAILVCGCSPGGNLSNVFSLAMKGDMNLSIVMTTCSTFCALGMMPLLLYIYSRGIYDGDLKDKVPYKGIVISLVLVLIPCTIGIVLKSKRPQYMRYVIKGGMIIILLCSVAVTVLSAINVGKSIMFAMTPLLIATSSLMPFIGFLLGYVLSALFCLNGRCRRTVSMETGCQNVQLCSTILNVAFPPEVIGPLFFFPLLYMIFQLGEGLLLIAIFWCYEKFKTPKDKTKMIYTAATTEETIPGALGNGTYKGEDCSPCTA

human NTCP [2] = molecular target: T1, human NTCP; test: Screening taurocholate uptake assay (96-well, [14C]taurocholate, 10 µM drug)
[3] = Prestwick library screen, 10 µM drug, B-score of Myrcludex B-FITC binding
[4] = Prestwick library screen, 10 µM drug, B-score of taurocholate uptake
[5] = combined ranking from functional and binding assay B-scores
[6] = Prestwick library screen, Myrcludex B-FITC binding, 10 µM drug
[7] = Prestwick library screen, taurocholate uptake, 10 µM drug
[8] = ranking score beside the functional and binding assay B-scores of the screen
[9] = screen, 10 µM drug, Myrcludex B-FITC binding
[10] = combined ranking from functional and binding screening assays
[11] = screen, 10 µM drug, taurocholate uptake

## COc1ccc2cc([C@@H](C)C(=O)[O-])ccc2c1.[Na+] [(R) -Naproxen sodium salt]
Human NTCP [1]
  B-score binding assay: 0.921
Human NTCP [2]
  B-score functional assay: -0.341
  Ranking score: 667.638

## CN[C@@H]1[C@@H](O)[C@@H](O[C@@H]2[C@@H](O)[C@H](O[C@H]3OC(CN)=CC[C@H]3N)[C@@H](N)C[C@H]2N)OC[C@]1(C)O [Sisomicin sulfate]
Human NTCP [1]; [3]
  B-score binding assay: 0.455
Human NTCP [2]; [4]
  B-score functional assay: 1.589
Human NTCP [2]; [5]
  Ranking score: 1018.48

## CN(C)CCCN1c2ccccc2CCc2ccc(Cl)cc21 [Clomipramine hydrochloride]
Human NTCP [1]; [6]
  B-score binding assay: -0.277
Human NTCP [2]; [7]
  B-score functional assay: 4.061
Human NTCP [2]; [8]
  Ranking score: 759.266

## Cc1cccc(C)c1N=C1NCCCS1 [Xylazine]
Human NTCP [1]
  B-score binding assay: -0.164
Human NTCP [2]
  B-score functional assay: -0.697
  Ranking score: 404.611

## OC(c1cc(C(F)(F)F)nc2c(C(F)(F)F)cccc12)C1CCCCN1 (stereo not drawn) [Mefloquine hydrochloride]
Human NTCP [1]; [6]
  B-score binding assay: -0.336
Human NTCP [2]; [7]
  B-score functional assay: 1.734
Human NTCP [2]; [8]
  Ranking score: 704.329

## CN1CCN2c3ccccc3Cc3ccccc3C2C1.Cl (stereo not drawn) [Mianserine hydrochloride]
Human NTCP [1]; [6]
  B-score binding assay: 0.761
Human NTCP [2]; [7]
  B-score functional assay: 0.041
Human NTCP [2]; [8]
  Ranking score: 825.955

## O=C(NCC1CCCCN1)c1cc(OCC(F)(F)F)ccc1OCC(F)(F)F (stereo not drawn) [Flecainide acetate]
Human NTCP [1]; [9]
  B-score binding assay: 0.272
Human NTCP [2]; [10]
  Ranking score: 448.174
Human NTCP [2]; [11]
  B-score functional assay: -1.076

## CC(C(=O)[O-])c1cccc(Oc2ccccc2)c1.CC(C(=O)[O-])c1cccc(Oc2ccccc2)c1.O.O.[Ca+2] (stereo not drawn) [Fenoprofen calcium salt dihydrate]
Human NTCP [1]; [9]
  B-score binding assay: 0.022
Human NTCP [2]; [10]
  Ranking score: 452.388
Human NTCP [2]; [11]
  B-score functional assay: -0.759

## [H]/N=C(/NCCCCC)N/N=C/c1c[nH]c2ccc(OC)cc12 [Tegaserod maleate]
Human NTCP [1]; [3]
  B-score binding assay: 0.318
Human NTCP [2]; [4]
  B-score functional assay: 1.009
Human NTCP [2]; [5]
  Ranking score: 947.847

## C/C(=C(/CCO)SSCC1CCCO1)N(C=O)Cc1cnc(C)nc1N.Cl (stereo not drawn) [Fursultiamine Hydrochloride]
Human NTCP [1]
  B-score binding assay: 0.087
Human NTCP [2]
  B-score functional assay: 1.116
  Ranking score: 897.109

## CC(C)Cn1cnc2c(N)nc3ccccc3c21 [Imiquimod]
Human NTCP [1]
  B-score binding assay: -0.174
Human NTCP [2]
  B-score functional assay: -0.019
  Ranking score: 554.076

## C=CCOc1ccccc1OCC(O)CNC(C)C (stereo not drawn) [Oxprenolol hydrochloride]
Human NTCP [1]; [9]
  B-score binding assay: -0.666
Human NTCP [2]; [10]
  Ranking score: 434.185
Human NTCP [2]; [11]
  B-score functional assay: -0.061

## CC(C)(C)NC[C@H](O)COc1ccccc1C1CCCC1 [Penbutolol sulfate]
Human NTCP [1]; [9]
  B-score binding assay: -1.346
Human NTCP [2]; [10]
  Ranking score: 368.646
Human NTCP [2]; [11]
  B-score functional assay: 0.103

## CCC1(c2ccccc2)NC(=O)N(C)C1=O (stereo not drawn) [Mephenytoin]
Human NTCP [1]; [6]
  B-score binding assay: 0
Human NTCP [2]; [7]
  B-score functional assay: 0.862
Human NTCP [2]; [8]
  Ranking score: 812.389

## CC1(C)S[C@@H]2[C@H](NC(=O)Cc3ccccc3)C(=O)N2[C@H]1C(=O)O.CC1(C)S[C@@H]2[C@H](NC(=O)Cc3ccccc3)C(=O)N2[C@H]1C(=O)O.c1ccc(CNCCNCc2ccccc2)cc1 [Benzathine benzylpenicillin]
Human NTCP [1]; [6]
  B-score binding assay: 0.21
Human NTCP [2]; [7]
  B-score functional assay: -0.072
Human NTCP [2]; [8]
  Ranking score: 672.134

## CCN(CC)C(=O)/C(C#N)=C/c1cc(O)c(O)c([N+](=O)[O-])c1 [Entacapone]
Human NTCP [1]; [9]
  B-score binding assay: -0.647
Human NTCP [2]; [10]
  Ranking score: 366.148
Human NTCP [2]; [11]
  B-score functional assay: -0.441

## O=C(NCCN1CCOCC1)c1ccc(Cl)cc1 [Moclobemide]
Human NTCP [1]; [6]
  B-score binding assay: -0.149
Human NTCP [2]; [7]
  B-score functional assay: 1.399
Human NTCP [2]; [8]
  Ranking score: 766.363

## COC(=O)CCc1ccc(OCC(O)CNC(C)C)cc1 (stereo not drawn) [Esmolol hydrochloride]
Human NTCP [1]; [3]
  B-score binding assay: 1.099
Human NTCP [2]; [4]
  B-score functional assay: 0.736
Human NTCP [2]; [5]
  Ranking score: 1025.92

## COc1cc([C@@H]2c3cc4c(cc3[C@@H](O[C@@H]3O[C@@H]5CO[C@@H](C)O[C@H]5[C@H](O)[C@H]3O)[C@H]3COC(=O)[C@H]23)OCO4)cc(OC)c1O [Etoposide]
Human NTCP [1]; [9]
  B-score binding assay: 0.046
Human NTCP [2]; [10]
  Ranking score: 333.467
Human NTCP [2]; [11]
  B-score functional assay: -1.678

## CO[C@H]1C[C@H](O[C@H]2[C@H](C)[C@@H](O[C@@H]3O[C@H](C)C[C@H](N(C)C)[C@H]3OC(C)=O)[C@@H](C)C[C@@]3(CO3)C(=O)[C@H](C)[C@@H](OC(C)=O)[C@@H](C)[C@@H](C)OC(=O)[C@@H]2C)O[C@@H](C)[C@@H]1OC(C)=O [Troleandomycin]
Human NTCP [1]; [6]
  B-score binding assay: 0.633
Human NTCP [2]; [7]
  B-score functional assay: -0.071
Human NTCP [2]; [8]
  Ranking score: 732.508

## CC(C)C[C@H]1C(=O)N2CCC[C@H]2[C@]2(O)O[C@](NC(=O)[C@@H]3C=C4c5cccc6[nH]c(Br)c(c56)C[C@H]4N(C)C3)(C(C)C)C(=O)N12.CS(=O)(=O)O [Bromocryptine mesylate]
Human NTCP [1]; [9]
  B-score binding assay: -0.252
Human NTCP [2]; [10]
  Ranking score: 349.571
Human NTCP [2]; [11]
  B-score functional assay: -0.957

## CNCC[C@@H](Oc1cccc2ccccc12)c1cccs1.Cl [(R)-Duloxetine hydrochloride]
Human NTCP [1]
  B-score binding assay: -0.619
Human NTCP [2]
  B-score functional assay: 1.079
  Ranking score: 610.37

## CC(C(=O)O)c1ccc(C(=O)c2ccccc2)s1 (stereo not drawn) [Tiaprofenic acid]
Human NTCP [1]; [3]
  B-score binding assay: 1.57
Human NTCP [2]; [4]
  B-score functional assay: 0.836
Human NTCP [2]; [5]
  Ranking score: 1082.46

## Cn1c(=O)c2c(ncn2CC2OCCO2)n(C)c1=O [Doxofylline]
Human NTCP [1]; [3]
  B-score binding assay: 0.388
Human NTCP [2]; [4]
  B-score functional assay: 3.316
Human NTCP [2]; [5]
  Ranking score: 1049.35

## Cc1ccc(Cl)c(Nc2ccccc2C(=O)[O-])c1Cl.O.[Na+]
Human NTCP [1]; [9]
  B-score binding assay: 0.415
Human NTCP [2]; [10]
  Ranking score: 386.518
Human NTCP [2]; [11]
  B-score functional assay: -1.621

## O=P(O)(O)C(O)(Cn1ccnc1)P(=O)(O)O [Zoledronic acid hydrate]
Human NTCP [1]; [9]
  B-score binding assay: -0.262
Human NTCP [2]; [10]
  Ranking score: 422.203
Human NTCP [2]; [11]
  B-score functional assay: -0.476

## Cn1c([N+](=O)[O-])cnc1COC(N)=O [Ronidazole]
Human NTCP [1]; [9]
  B-score binding assay: -0.252
Human NTCP [2]; [10]
  Ranking score: 432.42
Human NTCP [2]; [11]
  B-score functional assay: -0.446

## Nc1nc(=O)c2c([nH]1)NCC(CNc1ccc(C(=O)N[C@@H](CCC(=O)[O-])C(=O)[O-])cc1)N2C=O.[Ca+2] (stereo partly drawn) [Folinic acid calcium salt]
Human NTCP [1]; [6]
  B-score binding assay: 0.117
Human NTCP [2]; [7]
  B-score functional assay: 0.369
Human NTCP [2]; [8]
  Ranking score: 806.918

## Cc1ccc(N(CC2=NCCN2)c2cccc(O)c2)cc1 [Phentolamine hydrochloride]
Human NTCP [1]; [6]
  B-score binding assay: 1.392
Human NTCP [2]; [7]
  B-score functional assay: -0.082
Human NTCP [2]; [8]
  Ranking score: 785.945

## CCC1(C)CC(=O)NC1=O (stereo not drawn) [Ethosuximide]
Human NTCP [1]; [3]
  B-score binding assay: 0.697
Human NTCP [2]; [4]
  B-score functional assay: 1.817
Human NTCP [2]; [5]
  Ranking score: 1070.41

## C[N+](C)(C)CCCCCC[N+](C)(C)C.O.O.[Br-].[Br-] [Hexamethonium dibromide dihydrate]
Human NTCP [1]; [6]
  B-score binding assay: 0.191
Human NTCP [2]; [7]
  B-score functional assay: -0.02
Human NTCP [2]; [8]
  Ranking score: 696.207

## C#CCN[C@@H]1CCc2ccccc21 [Rasagiline]
Human NTCP [1]; [6]
  B-score binding assay: 0.275
Human NTCP [2]; [7]
  B-score functional assay: -0.098
Human NTCP [2]; [8]
  Ranking score: 667.796

## C[C@@H]1[C@H](O)[C@@H](C)/C=C/C=C/CC/C=C/C=C/C=C/C=C/C(O[C@H]2O[C@H](C)[C@@H](O)[C@H](N)[C@@H]2O)CC2O[C@](O)(CC(O)C(O)CCC(O)CC(O)CC(O)CC(=O)O[C@H]1C)CC(O)C2C(=O)O (stereo partly drawn) [Nystatine]
Human NTCP [1]; [6]
  B-score binding assay: 3.8
Human NTCP [2]; [7]
  B-score functional assay: -0.141
Human NTCP [2]; [8]
  Ranking score: 804.798

## CC(C)(C)NC(=O)[C@@H]1CN(Cc2cccnc2)CCN1C[C@@H](O)C[C@@H](Cc1ccccc1)C(=O)N[C@H]1c2ccccc2C[C@H]1O [Indinavir sulfate]
Human NTCP [1]; [6]
  B-score binding assay: 1.008
Human NTCP [2]; [7]
  B-score functional assay: -0.197
Human NTCP [2]; [8]
  Ranking score: 710.601

## Cyanocobalamin
Human NTCP [1]; [6]
  B-score binding assay: 0.087
Human NTCP [2]; [7]
  B-score functional assay: 0.223
Human NTCP [2]; [8]
  Ranking score: 774.968

From article PMC5681660, “Reduced hepatitis B and D viral entry using clinically applied drugs as novel inhibitors of the bile acid transporter NTCP” (Scientific Reports, 2017)
